Patent US20090098049A1, “Targeting transducible molecules to specific cell types” (The Regents of the University of California, priority 2004, published 2009)
Non-standard residues stand in square brackets, D forms with d. No end group written: not given here.

What was measured:
[1] = system: CXCR4-expressing Namalwa lymphoma cells; assay: Namalwa lymphoma cell killing (trypan blue exclusion; apoptosis by DNA content); assay type: cell-based, Human; conditions: for cell viability / cell number (in words): 30 μM peptide, single peptides or domains in trans, FIG. 3A
Experimental: (a) Namalwa lymphoma cells were treated with 40 μM TATp53C′ or DV3-TATp53C′ peptide for 48 h. Cell viability was assessed by trypan blue exclusion. Data represents the mean and standard error from three independent experiments. […] Cells were treated with 5 μM peptide for 24 hours and analyzed for DNA content by flow cytometry. […] Cells were treated with indicated concentrations of cdk2 antagonists TAT-RxL or DV3-TAT-RxL peptides for 48 h. Cell viability was assessed by trypan blue exclusion. Data represents the mean and standard error from three independent experiments. (e) Namalwa lymphoma (CXCR4+) cells were treated with DV3-TATp53C′, TATp53C′ or DV3-TATp53MUT peptides for 24 hours. Apoptosis was determined by <2N DNA content as measured by flow cytometry and DNA staining.
Namalwa lymphoma cells were treated with 30 μM peptide for 48 h. Cell viability was assessed by trypan blue exclusion. Data represents the mean and standard error from three independent experiments. […] Cells were treated with 30 μM DV3-TATp53C′ or parental TATp53C′ peptide for 48 h in the presence or absence of a 200 μM excess of DV3 peptide. Cell viability was assessed by trypan blue exclusion. Data represents the mean and standard error from three independent experiments.
Cell Culture and Flow Cytometry. TA3/St, H1299 and 293T cells were maintained in DMEM plus 10% fetal bovine serum (FBS) and penicillin/streptomycin (P/S). Namalwa B cells (ATCC) were maintained in RPMI plus 10% FBS, P/S. All cells were maintained at 37° C. in 5% CO2. Short-term cell viability was assessed by counting Trypan blue excluding cells on a hemocytometer. For cell cycle analysis, peptide treated cells were analyzed by FACS with 10 μg/ml propidium iodide in 0.5% NP-40. DNA profiles were analyzed using a FACScan and CellQuest software (Becton Dickinson, San Jose, Calif.).

CXCR4 receptor = target: T1, CXCR4 receptor (Homo sapiens, UniProt P61073); assay: CXCR4 binding assay (inhibition of 12G5-PE anti-CXCR4 antibody binding, flow cytometry); conditions: linked DV3 and TAT domains versus single domains, FIG. 1B
T1 construct: CXCR4 expressing Namalwa cells were washed 3 times with PBS/0.5% BSA and incubated on ice; endogenous in cells; host or cells: Namalwa B cells (human Burkitt's lymphoma, ATCC)
T1 sequence (P61073 whole entry, the tested form may be a part): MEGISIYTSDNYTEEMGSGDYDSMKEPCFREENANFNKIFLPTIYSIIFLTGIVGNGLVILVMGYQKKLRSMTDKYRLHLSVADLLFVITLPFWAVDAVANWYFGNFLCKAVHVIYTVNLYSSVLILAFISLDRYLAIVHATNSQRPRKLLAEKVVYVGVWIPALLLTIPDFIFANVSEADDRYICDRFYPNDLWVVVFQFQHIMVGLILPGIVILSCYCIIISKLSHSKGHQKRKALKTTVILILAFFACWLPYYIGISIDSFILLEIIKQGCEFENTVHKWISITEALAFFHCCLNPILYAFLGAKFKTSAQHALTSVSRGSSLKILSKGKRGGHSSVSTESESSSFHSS
Experimental: (a) Sequences of peptides used in some embodiments. All peptides were synthesized using D-isomer residues, except for the TAT-RxL peptides. (b) Human Namalwa lymphoma cells that overexpress CXCR4 receptor were incubated with increasing concentrations of peptide, followed by fluorescent PE-conjugated anti-CXCR4 monoclonal antibody incubation, then analyzed for antibody binding to CXCR4 receptor (mean fluorescence) by flow cytometry. Graph plots relative fluorescence of cells with respect to cells treated with antibody only. Data represents the mean and standard error from three independent experiments.
CXCR4 binding assay. CXCR4 expressing Namalwa cells were washed 3 times with PBS/0.5% BSA and incubated on ice with phycoerythrin (PE)-labeled anti-CXCR4 monoclonal antibody (12G5-PE, R&D Systems, WI) and peptide. PE-labeled isotype matched antibody was used to control for non-specific cell surface binding. […]
DV3 Enhances the Affinity of TAT Peptides for CXCR4 Expressing Cells. […] Human Namalwa Burkitt's lymphoma cells overexpressing the CXCR4 receptor were treated with various peptides to block the CXCR4 receptor, then incubated with phycoerythrin (PE) conjugated anti-CXCR4 antibody and analyzed by flow cytometry.

[2] = target: CXCR4 receptor on human Namalwa Burkitt's lymphoma cells (human) (UniProt P61073); assay: flow cytometry on Namalwa cells; inhibition of 12G5-PE binding to CXCR4
CXCR4 receptor on human Namalwa Burkitt's lymphoma cells (human), sequence (P61073 whole entry): as the sequence (P61073 whole entry, the tested form may be a part) above

Namalwa lymphoma cells = assay: Mouse model of metastatic peritoneal lymphoma (survival); assay type: in vivo; conditions: SCID mice, Namalwa cells i.p., 180 nmol peptide once a day for 12 days, FIG. 5
Experimental: FIG. 5. Targeted DV3-TATp53C′ peptide has enhanced ability to treat mouse model of aggressive, metastatic peritoneal lymphoma. Namalwa lymphoma cells were intraperitoneally injected into SCID mice and allowed to proliferate for 48 hours. Mice were then injected once a day for 12 days with vehicle control (n=10), or 180 nmol DV3-TATp53C′ peptide (n=11), non-targeted, parental TATp53C′ peptide (n=5), or control DV3-only peptide (n=5).

[3] = system: TA3/St mammary carcinoma cells; assay: Peptide treatment of CXCR4 non-expressing TA3/St cells (cell cycle by flow cytometry); assay type: cell-based; conditions: 5 μM peptide, 24 hours, DNA content by flow cytometry, FIG. 2B
Experimental: (§1) (a) Namalwa lymphoma cells were treated with 40 μM TATp53C′ or DV3-TATp53C′ peptide for 48 h. Cell viability was assessed by trypan blue exclusion. Data represents the mean and standard error from three independent experiments. (b) DV3-TATp53C′ and TATp53C′ peptides induce similar level of p53-dependent G1 cell cycle arrest in CXCR4 non-expressing TA3/St mammary carcinoma cells. Cells were treated with 5 μM peptide for 24 hours and analyzed for DNA content by flow cytometry. (c) DV3-TATp53C′, TATp53C′ and control DV3 peptide (30 μM) have no effect on CXCR4 non-expressing, p53-deficient H1299 lung adenocarcinoma cells. […] Cells were treated with indicated concentrations of cdk2 antagonists TAT-RxL or DV3-TAT-RxL peptides for 48 h. Cell viability was assessed by trypan blue exclusion. Data represents the mean and standard error from three independent experiments. […] Apoptosis was determined by <2N DNA content as measured by flow cytometry and DNA staining.
(§2) Cell Culture and Flow Cytometry. […] Short-term cell viability was assessed by counting Trypan blue excluding cells on a hemocytometer. For cell cycle analysis, peptide treated cells were analyzed by FACS with 10 μg/ml propidium iodide in 0.5% NP-40. DNA profiles were analyzed using a FACScan and CellQuest software (Becton Dickinson, San Jose, Calif.).

[4] = system: H1299 lung adenocarcinoma cells; assay: Peptide treatment of p53-deficient H1299 cells; assay type: cell-based, human; conditions: 30 μM peptide, FIG. 2C
Experimental: as §1, §2

CC(C)C[C@@H](N)C(=O)NCC(=O)N[C@H](C)C(=O)N[C@H](CO)C(=O)N[C@H](Cc1c[nH]c2ccccc12)C(=O)N[C@H](Cc1c[nH]cn1)C(=O)N[C@H](CCCNC(=N)N)C(=O)N1CCC[C@@H]1C(=O)N[C@H](CC(=O)O)C(=O)N[C@H](CCCCN)C(=O)NCC(=O)N[C@H](CCCNC(=N)N)C(=O)N[C@H](CCCNC(=N)N)C(=O)N[C@H](CCCNC(=N)N)C(=O)N[C@H](CCC(N)=O)C(=O)N[C@H](CCCNC(=N)N)C(=O)N[C@H](CCCNC(=N)N)C(=O)N[C@H](CCCCN)C(=O)N[C@H](CCCCN)C(=O)N[C@H](CCCNC(=N)N)C(=O)NCC(=O)O [DV3-TAT]
cell viability / cell number (in words) ([1]; Namalwa cells, 48 h): minimal effects on cell number | increased affinity for the CXCR4 receptor (CXCR4 receptor): ~100 fold

DV3-TAT peptide
IC50 [2]: < 10 nM | fold increased affinity (against DV3 or TAT peptide alone) [2]: 100 fold

DV3-TATp53C′ peptide
IC50 [2]: < 10 nM

[dL]G[dA][dS][dW][dH][dR][dP][dD][dK]G[dR][dR][dR][dQ][dR][dR][dK][dK][dR]G[dK][dK][dH][dR][dS][dT][dS][dQ]G[dK][dK][dS][dK][dL][dH][dS][dS][dH][dA][dR][dS]G [DV3-TATp53C′]
median survival (Namalwa lymphoma cells): 41 days | G1 cell cycle arrest [3]: induced a G1 arrest that was indistinguishable from treatment with parental TATp53C′ peptide | reduction of cell number ([1]; 40 μM peptide, 48 h, trypan blue exclusion, FIG. 2A): > 80% | cell killing in presence of excess competing DV3 peptide ([1]; Namalwa cells, 30 μM peptide co-administered with 200 μM DV3 peptide, 48 h, FIG. 3B): reduced the potency of DV3-TATp53C′ peptide to levels similar to that of parental TATp53C′ peptide | cell viability / cell number (in words) ([1]; Namalwa cells, 48 h): decreased viability to a significantly greater extent than treatment with parental TAT-p53C′ peptide | cell number / cell killing (in words) ([1]; Namalwa cells, p53 peptides, FIG. 2A): enhanced cell killing | effect on p53-deficient H1299 cells [4]: little to no effect

[dL]G[dA][dS][dW][dH][dR][dP][dD][dK] [DV3 peptide (CXCR4 receptor ligand)]
IC50 [2]: 1000 nM
